Test results from ChEMBL document CHEMBL3132762, “The effect of a thieno[2,3-b]pyridine PLC- inhibitor on the proliferation, morphology, migration and cell cycle of breast cancer cells” (Medchemcomm, 2014).
Calls of active or inactive are those of the source. The calls are words filed in the database; no cut-off is given here.

Key:
[1] = tested on: MDA-MB-231; test: Growth inhibition of human MDA-MB-231 cells after 3 days by DAPI staining; assay type: functional; settings: MDA-MB-231, 72 h
[2] = tested on: MDA-MB-231; test: Induction of morphological changes in red fluorescent labelled human MDA-MB-231 cells assessed as rounded-up cells at 6.25 to 1000 nM after 16 hrs by microscopic analysis; assay type: functional, cell-based
[3] = tested on: MCF7; test: Inhibition of ER-positive human MCF7 cell proliferation assessed as [3H]thymidine incorporation into DNA helix after 3 days by betaplate counting analysis; assay type: functional, cell-based
[4] = Inhibition of ER-positive human TamC6 cell proliferation assessed as [3H]thymidine incorporation into DNA helix after 3 days by betaplate counting analysis; assay type: functional, cell-based
[5] = tested on: MDA-MB-436; test: Inhibition of oestrogen, progesterone and HER2/neu receptor triple negative human MDA-MB-436 cell proliferation assessed as [3H]thymidine incorporation into DNA helix after 3 days by betaplate counting analysis; assay type: functional
[6] = tested on: HBL-100; test: Inhibition of oestrogen, progesterone and HER2/neu receptor triple negative human HBL100 cell proliferation assessed as [3H]thymidine incorporation into DNA helix after 3 days by betaplate counting analysis; assay type: functional, cell-based
[7] = tested on: SK-BR-3; test: Inhibition of HER2-overexpressing human SKBR3 cell proliferation assessed as [3H]thymidine incorporation into DNA helix after 3 days by betaplate counting analysis; assay type: functional, cell-based
[8] = tested on: MDA-MB-231; test: Reduction in red fluorescent mKATE2 labelled human MDA-MB-231 cell number at 1 uM after 24 hrs by fluorescent microscopic analysis; assay type: ADME, cell-based; settings: mda-mb-231, 24 h
[9] = tested on: T47D; test: Cell cycle arrest in human T47D cells assessed as cell shifting from dominant G0/G1 phases to G2/M phases at 1 uM after 16 to 24 hrs by flow cytometry; assay type: functional, cell-based
[10] = tested on: MDA-MB-231; test: Inhibition of oestrogen, progesterone and HER2/neu receptor triple negative human MDA-MB-231 cell proliferation assessed as [3H]thymidine incorporation into DNA helix after 3 days by betaplate counting analysis; assay type: functional, cell-based
[11] = Inhibition of ER-positive human TamR6 cell proliferation assessed as [3H]thymidine incorporation into DNA helix after 3 days by betaplate counting analysis; assay type: functional, cell-based
[12] = tested on: T47D; test: Cell cycle arrest in human T47D cells assessed as cell accumulation at S phase at 1 uM after 16 to 24 hrs by flow cytometry; assay type: functional, cell-based
[13] = tested on: MDA-MB-453; test: Inhibition of oestrogen, progesterone and HER2/neu receptor triple negative human MDA-MB-453 cell proliferation assessed as [3H]thymidine incorporation into DNA helix after 3 days by betaplate counting analysis; assay type: functional, cell-based
[14] = tested on: MDA-MB-468; test: Inhibition of oestrogen, progesterone and HER2/neu receptor triple negative human MDA-MB-468 cell proliferation assessed as [3H]thymidine incorporation into DNA helix after 3 days by betaplate counting analysis; assay type: functional, cell-based
[15] = tested on: MDA-MB-435; test: Inhibition of oestrogen, progesterone and HER2/neu receptor triple negative human MDA-MB-435 cell proliferation assessed as [3H]thymidine incorporation into DNA helix after 3 days by betaplate counting analysis; assay type: functional, cell-based
[16] = tested on: MDA-MB-231; test: Inhibition of red fluorescent mKATE2 labelled human MDA-MB-231 cell migration assessed as displacement of wound edges at 1 uM after 24 hrs by wound healing assay; assay type: functional; settings: MDA-MB-231, 24 h
[17] = Inhibition of ER-positive human TamC3 cell proliferation assessed as [3H]thymidine incorporation into DNA helix after 3 days by betaplate counting analysis; assay type: functional, cell-based
[18] = Inhibition of ER-positive human KPL1 cell proliferation assessed as [3H]thymidine incorporation into DNA helix after 3 days by betaplate counting analysis; assay type: functional, cell-based; settings: KPL-1
[19] = tested on: MDA-MB-231; test: Cell cycle arrest in human MDA-MB-231 cells assessed as cell accumulation at S phase at 1 uM after 16 to 24 hrs by flow cytometry; assay type: functional, cell-based
[20] = Inhibition of ER-positive human TamR7 cell proliferation assessed as [3H]thymidine incorporation into DNA helix after 3 days by betaplate counting analysis; assay type: functional, cell-based
[21] = Inhibition of ER-positive human TamR3 cell proliferation assessed as [3H]thymidine incorporation into DNA helix after 3 days by betaplate counting analysis; assay type: functional, cell-based
[22] = tested on: MDA-MB-231; test: Induction of morphological changes in red fluorescent labelled human MDA-MB-231 cells assessed as rounded-up cells after 16 hrs by microscopic analysis; assay type: functional, cell-based
[23] = tested on: MDA-MB-468; test: Cell cycle arrest in human MDA-MB-468 cells assessed as cell shifting from dominant G0/G1 phases to G2/M phases at 1 uM after 16 to 24 hrs by flow cytometry; assay type: functional, cell-based
[24] = tested on: MDA-MB-468; test: Cell cycle arrest in human MDA-MB-468 cells assessed as cell accumulation at S phase at 1 uM after 16 to 24 hrs by flow cytometry; assay type: functional, cell-based
[25] = tested on: T47D; test: Inhibition of ER-positive human T47D cell proliferation assessed as [3H]thymidine incorporation into DNA helix after 3 days by betaplate counting analysis; assay type: functional, cell-based
[26] = tested on: MCF7; test: Cell cycle arrest in human MCF7 cells assessed as cell shifting from dominant G0/G1 phases to G2/M phases at 1 uM after 16 to 24 hrs by flow cytometry; assay type: functional, cell-based
[27] = tested on: MCF7; test: Cell cycle arrest in human MCF7 cells assessed as cell accumulation at S phase at 1 uM after 16 to 24 hrs by flow cytometry; assay type: functional, cell-based
[28] = tested on: MDA-MB-231; test: Cell cycle arrest in human MDA-MB-231 cells assessed as cell shifting from dominant G0/G1 phases to G2/M phases at 1 uM after 16 to 24 hrs by flow cytometry; assay type: functional, cell-based
[29] = tested on: BT-20; test: Inhibition of oestrogen, progesterone and HER2/neu receptor triple negative human BT20 cell proliferation assessed as [3H]thymidine incorporation into DNA helix after 3 days by betaplate counting analysis; assay type: functional, cell-based

In the case of `CC(=O)Nc1cccc(-n2c(=O)n(C3CC3)c(=O)c3c(Nc4ccc(I)cc4F)n(C)c(=O)c(C)c32)c1` [TRAMETINIB], the GI50 [1] is reported as 25 nM and the Activity [2] is reported as “inactive”.

Molecule `Nc1c(C(=O)Nc2cccc(Cl)c2)sc2nc3c(cc12)C(=O)CCC3` has an IC50 [3] of 125 nM, an IC50 [4] of 102 nM and an IC50 [5] of 157 nM. The IC50 [6] was 265 nM, the IC50 [7] was 138 nM and the Activity [8] was “Toxic”. For the same molecule, the Activity [9] was “Active”, the IC50 [10] was 357 nM and the IC50 [11] was 105 nM. For the same molecule, the Activity [12] was “inactive”, the IC50 [13] was 186 nM and the IC50 [14] was 163 nM. It also gave an IC50 [15] of 77 nM, an inhibition at 1 µM [16] of 50% and an IC50 [17] of 122 nM. For the same molecule, the IC50 [18] was 106 nM, the Activity [19] was “inactive” and the IC50 [20] was 154 nM. For the same molecule, the IC50 [21] was 120 nM, the Activity [22] was “Active” and the Activity [23] was “Active”. For the same molecule, the Activity [24] was “inactive”, the IC50 [25] was 570 nM and the Activity [26] was “Active”. For the same molecule, the Activity [27] was “inactive”, the Activity [28] was “Active” and the IC50 [29] was 194 nM.
